Activity calls are given as the source filed them. The rule behind the calls is not given here.
Legend:
[1] = Stability of the compound assessed as compound hydrolysis at room temperature after 5 days; assay type: physicochemical; details: read-out: Drug degradation
[2] = Solubility in water; assay type: physicochemical
[3] = Stability of the compound in solid state assessed as compound hydrolysis; assay type: physicochemical
[4] = Stability of the compound in pH 7.5 buffer assessed as compound hydrolysis measured over 12 hrs; assay type: physicochemical; details: read-out: Drug degradation
[5] = Stability of the compound in pH 7.5 buffer assessed as compound hydrolysis at room temperature; assay type: physicochemical; details: read-out: Drug degradation
[6] = Drug metabolism in mouse plasma assessed as formation of N-3,5-bis(trifluoromethyl)phenyl-5-chloro-2-hydroxybenzamide measured within 5 mins; assay type: ADME, cell-free
[7] = Drug metabolism in mouse plasma assessed as formation of 2-3,5-bis(trifluoromethyl)phenylcarbamoyl-4-chlorophenyl phosphate bis-ethanolamine salt at 10 mg/kg, ip loading dose and 1 mg/ml at 8 ul/hr maintenance dose measured at 15 mins and 24 hrs post dose by LC-MS/MS analysis; assay type: ADME, organism-based; details: in vivo
[8] = Drug metabolism in mouse plasma assessed as formation of N-3,5-bis(trifluoromethyl)phenyl-5-chloro-2-hydroxybenzamide at 10 mg/kg, ip loading dose and 1 mg/ml at 8 ul/hr maintenance dose measured at 15 mins and 24 hrs post dose by LC-MS/MS analysis; assay type: ADME, organism-based; details: in vivo
[9] = Drug metabolism in mouse plasma assessed as N-3,5-bis(trifluoromethyl)phenyl-5-chloro-2-hydroxybenzamide level at 10 mg/kg, ip loading dose and 1 mg/ml at 8 ul/hr maintenance dose measured at 15 mins and 24 hrs post dose by LC-MS/MS analysis; assay type: ADME, organism-based; details: in vivo
[10] = system: Mus musculus; assay: Drug absorption mouse plasma assessed as rate of drug absorption at 10 mg/kg, ip loading dose and 1 mg/ml at 8 ul/hr maintenance dose measured at 15 mins and 24 hrs post dose by LC-MS/MS analysis; assay type: ADME, organism-based; details: in vivo
[11] = Drug elimination mouse plasma assessed as rate of drug elimination at 10 mg/kg, ip loading dose and 1 mg/ml at 8 ul/hr maintenance dose measured at 15 mins and 24 hrs post dose by LC-MS/MS analysis; assay type: ADME, organism-based
[12] = system: Mus musculus; assay: Improvement in neurological outcome in intraluminal monofilament mouse model of middle cerebral artery occlusion at 2 mg/kg, ip loading dose and 1 mg/ml at 8 ul/hr maintenance dose; assay type: functional, organism-based
[13] = system: Mus musculus; assay: Improvement in neurological outcome in intraluminal monofilament mouse model of middle cerebral artery occlusion assessed as reduction in severe paralysis progress at 2 mg/kg, ip loading dose and 1 mg/ml at 8 ul/hr maintenance dose; assay type: functional, organism-based
[14] = system: Mus musculus; assay: Improvement in neurological outcome in intraluminal monofilament mouse model of middle cerebral artery occlusion assessed as reduction in death incidence at 2 mg/kg, ip loading dose and 1 mg/ml at 8 ul/hr maintenance dose; assay type: functional, organism-based
[15] = Stability of the compound in pH 9.5 buffer assessed as compound hydrolysis measured over 12 hrs; assay type: physicochemical; details: read-out: Drug degradation
[16] = Stability of the compound in pH 9.5 buffer assessed as compound hydrolysis at room temperature; assay type: physicochemical; details: read-out: Drug degradation
[17] = Stability of the compound in pH 8.5 buffer assessed as compound hydrolysis measured over 12 hrs; assay type: physicochemical; details: read-out: Drug degradation
[18] = Stability of the compound in pH 8.5 buffer assessed as compound hydrolysis at room temperature; assay type: physicochemical; details: read-out: Drug degradation
[19] = target: T1, Aquaporin-2 (Homo sapiens) (UniProt P41181); assay: Inhibition of AQP2 (unknown origin) expressed in CHO cells assessed as reduction in aquaporin-mediated cell Volume change at 10 uM by light scattering based assay
T1 sequence (whole entry): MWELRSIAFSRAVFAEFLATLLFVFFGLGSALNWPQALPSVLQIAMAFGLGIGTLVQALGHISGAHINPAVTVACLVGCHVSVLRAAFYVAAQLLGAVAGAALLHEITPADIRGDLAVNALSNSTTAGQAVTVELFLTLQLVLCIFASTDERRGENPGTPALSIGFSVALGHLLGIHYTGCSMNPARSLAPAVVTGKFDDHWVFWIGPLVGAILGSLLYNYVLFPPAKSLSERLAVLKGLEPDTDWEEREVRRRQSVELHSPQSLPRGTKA

[20] = target: T2, Aquaporin-1 (Homo sapiens) (UniProt P29972); assay: Inhibition of AQP1 (unknown origin) expressed in CHO cells assessed as reduction in aquaporin-mediated cell Volume shrinkage at 10 uM by light scattering based assay
T2 sequence (whole entry): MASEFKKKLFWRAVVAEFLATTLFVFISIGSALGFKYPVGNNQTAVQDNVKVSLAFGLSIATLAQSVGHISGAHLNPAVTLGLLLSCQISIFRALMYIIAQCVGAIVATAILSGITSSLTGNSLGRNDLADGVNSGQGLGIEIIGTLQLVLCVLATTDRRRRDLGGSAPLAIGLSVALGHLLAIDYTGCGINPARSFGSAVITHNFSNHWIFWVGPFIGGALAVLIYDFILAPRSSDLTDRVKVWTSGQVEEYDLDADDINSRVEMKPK

[21] = target: Aquaporin-5 (Homo sapiens) (UniProt P55064); assay: Inhibition of AQP5 (unknown origin) expressed in CHO cells assessed as reduction in aquaporin-mediated cell Volume shrinkage at 10 uM by light scattering based assay
Sequence of Aquaporin-5 (Homo sapiens) (P55064 whole entry): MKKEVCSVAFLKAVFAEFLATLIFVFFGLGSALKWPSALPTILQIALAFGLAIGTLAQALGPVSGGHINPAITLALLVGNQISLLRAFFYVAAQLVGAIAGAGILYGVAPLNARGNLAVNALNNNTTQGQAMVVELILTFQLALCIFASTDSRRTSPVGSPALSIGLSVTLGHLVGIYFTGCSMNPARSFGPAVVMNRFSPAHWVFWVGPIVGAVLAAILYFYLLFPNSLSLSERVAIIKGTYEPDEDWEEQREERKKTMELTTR

[22] = system: Mus musculus; assay: Inhibition of water toxicity in mouse water toxicity model assessed as time to 50% survival for animals at 0.76 mg/kg relative to control; assay type: functional
[23] = system: Mus musculus; assay: Inhibition of water shock-induced cerebral edema in mouse water toxicity model assessed as reduction in extent of cerebral edema at 0.76 mg/kg by MRI analysis relative to control; assay type: functional, organism-based
[24] = Plasma concentration in mouse water toxicity model a at 0.76 mg/kg; assay type: organism-based; details: in vivo
[25] = target: Aquaporin-4 (Homo sapiens) (UniProt P55087); assay: Inhibition of AQP4 (unknown origin) expressed in CHO cells assessed as reduction in water shock-induced aquaporin-mediated cell bursting at 10 uM incubated for 30 mins by calcein-AM fluorescence end-point assay; assay type: cell-based
Sequence of Aquaporin-4 (Homo sapiens) (P55087 whole entry): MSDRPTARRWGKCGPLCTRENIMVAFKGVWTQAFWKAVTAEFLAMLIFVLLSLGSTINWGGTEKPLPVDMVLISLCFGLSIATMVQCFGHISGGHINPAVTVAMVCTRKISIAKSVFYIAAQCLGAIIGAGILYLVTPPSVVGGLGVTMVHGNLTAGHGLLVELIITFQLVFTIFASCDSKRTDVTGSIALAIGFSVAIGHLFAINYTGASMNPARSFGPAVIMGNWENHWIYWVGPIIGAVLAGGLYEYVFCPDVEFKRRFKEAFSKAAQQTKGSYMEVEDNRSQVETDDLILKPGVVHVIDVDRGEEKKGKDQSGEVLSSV

SMILES: O=C(Nc1cc(C(F)(F)F)cc(C(F)(F)F)c1)c1cc(Cl)ccc1OP(=O)(O)O [listing 1 of 2 here]
- degraded at 120 h [1]: < 1%

SMILES: NCCO.NCCO.O=C(Nc1cc(C(F)(F)F)cc(C(F)(F)F)c1)c1cc(Cl)ccc1OP(=O)(O)O
- solubility [2]: 10000 µg/mL
- Drug degradation [3]: 1%
- degraded at 12 h [4]: < 1%
- degraded [5]: 1%
- Drug metabolism [6]: Metabolite_Detected
- Drug metabolism [7]: Metabolite_Notdetected
- Drug metabolism [8]: Metabolite_Detected
- Drug metabolism [9]: 400 ng/mL
- Ka [10]: 0.12 min⁻¹
- k el [11]: 0.000283 s⁻¹

SMILES: O=C(Nc1cc(C(F)(F)F)cc(C(F)(F)F)c1)c1cc(Cl)ccc1OP(=O)(O)O [listing 2 of 2 here]
- Activity [12]: Active
- Activity [13]: Active
- Activity [14]: Active

SMILES: O=C(Nc1cc(C(F)(F)F)cc(C(F)(F)F)c1)c1cc(Cl)ccc1OP(=O)([O-])[O-].[Na+].[Na+]
- solubility [2]: 1000 to 10000 µg/mL
- degraded ([3]; solid state, read-out: Drug degradation): 1%
- degraded at 12 h [15]: < 1%
- degraded [16]: 1%

SMILES: O=C(Nc1cc(C(F)(F)F)cc(C(F)(F)F)c1)c1cc(Cl)ccc1OP(=O)([O-])O.[Na+]
- Drug degradation [3]: 1%
- degraded at 12 h [17]: < 1%
- degraded [18]: 1%

SMILES: O=C(Nc1cc(Cl)cc(Cl)c1)c1cc(Cl)ccc1O
- inhibition [19]: 81%
- inhibition [20]: inactive
- inhibition [21]: inactive

SMILES: O=C(Nc1cc(C(F)(F)F)cc(C(F)(F)F)c1)c1cc(Cl)ccc1O [IMD-0354]
- Time [22]: 52 min
- inhibition [23]: Active
- Cp [24]: 0.03 to 0.06 g
- inhibition [25]: Active

Source: ChEMBL document CHEMBL4421726, “Novel prodrug salts” (2016)
